target: recombinant DYRK1A kinase (Homo sapiens (Human), UniProt Q13627); assay: DYRK1A kinase assay (Ser/Thr 18 peptide Z-lyte FRET assay); assay type: biochemical; details: DYRK1A 0.25 μg/mL, ATP 15 μM, Ser/Thr peptide 18 4 μM; one hour at room temperature; 11-point dose-response, duplicate
Method: Representative compounds were screened using the assay procedure for DYRK1A kinase activity as described below.
Each compound was dissolved in DMSO as a 10 mM stock and used to prepare compound source plates.
This is a non-radioactive assay using fluorescence resonance energy transfer (FRET) between coumarin and fluorescein to detect kinase activity which is represented as a ratio of coumarin emission/fluorescein emission.
The mixture was allowed to incubate with the representative compounds for one hour at room temperature. All reactions were performed in duplicate. Unphosphorylated (“0% Control”) and phosphorylated (“100% control”) forms of Ser/Thr 18 served as control reactions. Additionally, an 11-point dose-response curve of Staurosporine (1 uM top) was run to serve as a positive compound control.
After incubation, Development Reagent A was diluted in Development Buffer then added to the reaction and allowed to further incubate for one hour at room temperature.
Dose-response curves were generated, and inhibitory concentration (IC50) values were calculated using non-linear regression curve fit in the Dotmatics' Studies Software (Bishops Stortford, UK).

Structure (SMILES)	IC50
CNc1nc(N[C@H]2CCN(C)C[C@H]2F)nn2ccc(-c3ccc4nc(C)n(CC(F)F)c4n3)c12 [Compound 204, 5-(3-(2,2-Difluoroethyl)-2-methyl-3H-imidazo[4,5-b]pyridin-5-yl)-N^2-((3R,4S)-3-fluoro-1-methylpiperidin-4-yl)-N^4-methylpyrrolo[2,1-f][1,2,4]triazine-2,4-diamine]	0.8 nM
CNc1nc(N[C@@H]2CCN(C)C[C@@H]2F)nn2ccc(-c3ccc4nc(C)n(CC(F)F)c4n3)c12 [Compound 205, 5-(3-(2,2-Difluoroethyl)-2-methyl-3H-imidazo[4,5-b]pyridin-5-yl)-N^2-((3S,4R)-3-fluoro-1-methylpiperidin-4-yl)-N^4-methylpyrrolo[2,1-f][1,2,4]triazine-2,4-diamine]	1 nM
CNc1nc(N[C@@H]2CCN(C)CC2(F)F)nn2ccc(-c3ccc4nc(C)n(CC(F)F)c4n3)c12 [Compound 214, (R)—N^2-(3,3-Difluoro-1-methylpiperidin-4-yl)-5-(3-(2,2-difluoroethyl)-2-methyl-3H-imidazo[4,5-b]pyridin-5-yl)-N^4-methylpyrrolo[2,1-f][1,2,4]triazine-2,4-diamine]	1.1 nM
CNc1nc(N[C@H]2CCN(C)CC2(F)F)nn2ccc(-c3ccc4nc(C)n(CC(F)F)c4n3)c12 [Compound 215, (S)—N^2-(3,3-Difluoro-1-methylpiperidin-4-yl)-5-(3-(2,2-difluoroethyl)-2-methyl-3H-imidazo[4,5-b]pyridin-5-yl)-N^4-methylpyrrolo[2,1-f][1,2,4]triazine-2,4-diamine]	4.4 nM
CNc1nc(N[C@@H]2CCN(C3COC3)CC2(F)F)nn2ccc(-c3ccc4nc(C)n(CC(F)F)c4n3)c12 [Compound 216, (R)—N^2-(3,3-Difluoro-1-(oxetan-3-yl)piperidin-4-yl)-5-(3-(2,2-difluoroethyl)-2-methyl-3H-imidazo[4,5-b]pyridin-5-yl)-N^4-methylpyrrolo[2,1-f][1,2,4]triazine-2,4-diamine]	0.8 nM
CNc1nc(N[C@H]2CCN(C3COC3)CC2(F)F)nn2ccc(-c3ccc4nc(C)n(CC(F)F)c4n3)c12 [Compound 217, (S)—N^2-(3,3-Difluoro-1-(oxetan-3-yl)piperidin-4-yl)-5-(3-(2,2-difluoroethyl)-2-methyl-3H-imidazo[4,5-b]pyridin-5-yl)-N^4-methylpyrrolo[2,1-f][1,2,4]triazine-2,4-diamine]	1.7 nM
CNc1nc(NC2(C)CCOCC2)nn2ccc(-c3ccc4nc(C)n(CC(F)F)c4n3)c12 [Compound 218, 5-(3-(2,2-Difluoroethyl)-2-methyl-3H-imidazo[4,5-b]pyridin-5-yl)-N^4-methyl-N^2-(4-methyltetrahydro-2H-pyran-4-yl)pyrrolo[2,1-f][1,2,4]triazine-2,4-diamine]	14.2 nM
CNc1nc(N[C@@H]2[C@@H]3CNC[C@@H]32)nn2ccc(-c3ccc4nc(C)n(CC(F)F)c4n3)c12 [Compound 219, N^2-((1R,5S,6r)-3-Azabicyclo[3.1.0]hexan-6-yl)-5-(3-(2,2-difluoroethyl)-2-methyl-3H-imidazo[4,5-b]pyridin-5-yl)-N^4-methylpyrrolo[2,1-f][1,2,4]triazine-2,4-diamine]	6.7 nM
CNc1nc(N[C@@H]2[C@@H]3CN(C(C)=O)C[C@@H]32)nn2ccc(-c3ccc4nc(C)n(CC(F)F)c4n3)c12 [Compound 220, 1-((1R,5S,6r)-6-((5-(3-(2,2-Difluoroethyl)-2-methyl-3H-imidazo[4,5-b]pyridin-5-yl)-4-(methylamino)pyrrolo[2,1-f][1,2,4]triazin-2-yl)amino)-3-azabicyclo[3.1.0]hexan-3-yl)ethan-1-one]	9.7 nM
CNc1nc(N[C@H]2[C@@H]3COC[C@@H]32)nn2ccc(-c3ccc4nc(C)n(CC(F)F)c4n3)c12 [Compound 221, N^2-((1R,5S,6r)-3-Oxabicyclo[3.1.0]hexan-6-yl)-5-(3-(2,2-difluoroethyl)-2-methyl-3H-imidazo[4,5-b]pyridin-5-yl)-N^4-methylpyrrolo[2,1-f][1,2,4]triazine-2,4-diamine]	1.6 nM
CNc1nc(N[C@@H]2[C@@H]3COC[C@@H]32)nn2ccc(-c3ccc4nc(C)n(CC(F)F)c4n3)c12 [Compound 222, N^2-((1R,5S,6s)-3-Oxabicyclo[3.1.0]hexan-6-yl)-5-(3-(2,2-difluoroethyl)-2-methyl-3H-imidazo[4,5-b]pyridin-5-yl)-N^4-methylpyrrolo[2,1-f][1,2,4]triazine-2,4-diamine]	4.1 nM
CNc1nc(NC2CC3(CCN(C(C)=O)CC3)C2)nn2ccc(-c3ccc4nc(C)n(CC(F)F)c4n3)c12 [Compound 223, 1-(2-((5-(3-(2,2-Difluoroethyl)-2-methyl-3H-imidazo[4,5-b]pyridin-5-yl)-4-(methylamino)pyrrolo[2,1-f][1,2,4]triazin-2-yl)amino)-7-azaspiro[3.5]nonan-7-yl)ethan-1-one]	1.1 nM
CNc1nc(NC2CCC3(CC2)CN(C(C)=O)C3)nn2ccc(-c3ccc4nc(C)n(CC(F)F)c4n3)c12 [Compound 224, 1-(7-((5-(3-(2,2-Difluoroethyl)-2-methyl-3H-imidazo[4,5-b]pyridin-5-yl)-4-(methylamino)pyrrolo[2,1-f][1,2,4]triazin-2-yl)amino)-2-azaspiro[3.5]nonan-2-yl)ethan-1-one]	0.2 nM
CNc1nc(NC2CCC3(CC2)COC3)nn2ccc(-c3ccc4nc(C)n(CC(F)F)c4n3)c12 [Compound 225, 5-(3-(2,2-Difluoroethyl)-2-methyl-3H-imidazo[4,5-b]pyridin-5-yl)-N^4-methyl-N^2-(2-oxaspiro[3.5]nonan-7-yl)pyrrolo[2,1-f][1,2,4]triazine-2,4-diamine]	0.8 nM
CNc1nc(N[C@H]2CC[C@@]3(CCO3)CC2)nn2ccc(-c3ccc4nc(C)n(CC(F)F)c4n3)c12 [Compound 226, 5-(3-(2,2-Difluoroethyl)-2-methyl-3H-imidazo[4,5-b]pyridin-5-yl)-N^4-methyl-N^2-((4r,7r)-1-oxaspiro[3.5]nonan-7-yl)pyrrolo[2,1-f][1,2,4]triazine-2,4-diamine]	2 nM
CNc1nc(N[C@H]2CC[C@]3(CCO3)CC2)nn2ccc(-c3ccc4nc(C)n(CC(F)F)c4n3)c12 [Compound 227, 5-(3-(2,2-Difluoroethyl)-2-methyl-3H-imidazo[4,5-b]pyridin-5-yl)-N^4-methyl-N^2-((4s,7s)-1-oxaspiro[3.5]nonan-7-yl)pyrrolo[2,1-f][1,2,4]triazine-2,4-diamine]	3.3 nM
CNc1nc(NC2C3CCC2CN(C)C3)nn2ccc(-c3ccc4nc(C)n(CC(F)F)c4n3)c12 (stereo not drawn) [Compound 228, 5-(3-(2,2-Difluoroethyl)-2-methyl-3H-imidazo[4,5-b]pyridin-5-yl)-N^4-methyl-N^2-(3-methyl-3-azabicyclo[3.2.1]octan-8-yl)pyrrolo[2,1-f][1,2,4]triazine-2,4-diamine]	2.8 nM
CNc1nc(N[C@@H]2CCNCC2(F)F)nn2ccc(-c3ccn4nccc4n3)c12 [Compound 339, (R)—N^2-(3,3-Difluoropiperidin-4-yl)-N^4-methyl-5-(pyrazolo[1,5-a]pyrimidin-5-yl)pyrrolo[2,1-f][1,2,4]triazine-2,4-diamine]	2.2 nM
CNc1nc(N[C@@H]2CCN(C3COC3)CC2(F)F)nn2ccc(-c3ccc4ncn(CC(F)F)c4n3)c12 [Compound 351, (R)—N^2-(3,3-Difluoro-1-(oxetan-3-yl)piperidin-4-yl)-5-(3-(2,2-difluoroethyl)-3H-imidazo[4,5-b]pyridin-5-yl)-N^4-methylpyrrolo[2,1-f][1,2,4]triazine-2,4-diamine]	365 nM
CNc1nc(N[C@H]2C[C@H](C(C)(C)O)C2)nn2ccc(-c3ccc4nc(C)n(CC(F)F)c4n3)c12 [Compound 355, 2-(trans-3-((5-(3-(2,2-Difluoroethyl)-2-methyl-3H-imidazo[4,5-b]pyridin-5-yl)-4-(methylamino)pyrrolo[2,1-f][1,2,4]triazin-2-yl)amino)cyclobutyl)propan-2-ol]	4.2 nM
CNc1nc(N[C@H]2CN(C)CC2(F)F)nn2ccc(-c3ccc4nc(C)n(CC(F)F)c4n3)c12 [Compound 363, (S)—N^2-(4,4-Difluoro-1-methylpyrrolidin-3-yl)-5-(3-(2,2-difluoroethyl)-2-methyl-3H-imidazo[4,5-b]pyridin-5-yl)-N^4-methylpyrrolo[2,1-f][1,2,4]triazine-2,4-diamine]	2.1 nM
CNc1nc(N[C@@H]2CN(C)CC2(F)F)nn2ccc(-c3ccc4nc(C)n(CC(F)F)c4n3)c12 [Compound 364, (R)—N^2-(4,4-Difluoro-1-methylpyrrolidin-3-yl)-5-(3-(2,2-difluoroethyl)-2-methyl-3H-imidazo[4,5-b]pyridin-5-yl)-N^4-methylpyrrolo[2,1-f][1,2,4]triazine-2,4-diamine]	0.6 nM
CCN1C[C@H](Nc2nc(NC)c3c(-c4ccc5nc(C)n(CC(F)F)c5n4)ccn3n2)C(F)(F)C1 [Compound 365, (S)-5-(3-(2,2-Difluoroethyl)-2-methyl-3H-imidazo[4,5-b]pyridin-5-yl)-N^2-(1-ethyl-4,4-difluoropyrrolidin-3-yl)-N^4-methylpyrrolo[2,1-f][1,2,4]triazine-2,4-diamine]	6.3 nM
CCN1C[C@@H](Nc2nc(NC)c3c(-c4ccc5nc(C)n(CC(F)F)c5n4)ccn3n2)C(F)(F)C1 [Compound 366, (R)-5-(3-(2,2-Difluoroethyl)-2-methyl-3H-imidazo[4,5-b]pyridin-5-yl)-N^2-(1-ethyl-4,4-difluoropyrrolidin-3-yl)-N^4-methylpyrrolo[2,1-f][1,2,4]triazine-2,4-diamine]	1.4 nM

— US20240199649A1 (Biosplice Therapeutics, Inc., priority 2022, published 2024)
